Laboratory results from patent US8933129B2, “Compounds and methods for modulating activity of calcium release channels” (State of Oregon by and through the State Board of Higher …, priority 2009, dated 2015).
Like-named read-outs stand apart in the source and are kept apart here.

How the values were obtained:
[1] = target: T1, RyR1 (skeletal muscle CRC) (Oryctolagus cuniculus, UniProt P11716); experiment: Single Ca2+ channel analysis: open probability of skeletal muscle CRC reconstituted in planar bilayer; assay type: biochemical, rabbit
T1 construct: from tissue; host or cells: fast twitch skeletal muscle of New Zealand White rabbit, heavy sarcoplasmic reticulum fraction
Procedure: Fast twitch skeletal muscle sarcoplasmic reticulum was isolated from New Zealand White rabbit, a rich source of skeletal receptors. Following isolation of a crude fraction, the SR was placed on a discontinuous sucrose gradient and a heavy fraction (HSR) was used for all single channel experiments. Ca^2+ release channel reconstitution into a bilayer membrane was carried out by the addition of SR vesicles to the cis side of a planar bilayer lipid membrane. Bilayers, made with a 5:3:2 mixture of phosphatidylethanolamine:phosphatidylserine:phosphatidylcholine (Avanti Polar Lipids) at 50 mg/ml in decane, were formed across a 150 μm hole drilled in a polystyrene cup separating two chambers of 0.7 ml each. […] SR vesicles, suspended in 0.4-0.6 M sucrose, 400 mM CsMS were added to the cis chamber at a final concentration of 5-20 μg/ml.

[2] = target: T2, skeletal muscle CRC (skeletal muscle ryanodine receptor RyR1) (Oryctolagus cuniculus, UniProt P11716); experiment: single channel activity (open probability) of skeletal muscle Ca2+ release channel reconstituted in planar lipid bilayer; assay type: biochemical, rabbit (New Zealand White); details: sub-micromolar 4-MmC; FIG. 5
T2 construct: heavy sarcoplasmic reticulum vesicles from fast twitch skeletal muscle fused to planar lipid bilayer; single channel recording
Procedure: Fast twitch skeletal muscle sarcoplasmic reticulum was isolated from New Zealand White rabbit, a rich source of skeletal receptors. Following isolation of a crude fraction, the SR was placed on a discontinuous sucrose gradient and a heavy fraction (HSR) was used for all single channel experiments. Ca^2+ release channel reconstitution into a bilayer membrane was carried out by the addition of SR vesicles to the cis side of a planar bilayer lipid membrane. Bilayers, made with a 5:3:2 mixture of phosphatidylethanolamine:phosphatidylserine:phosphatidylcholine (Avanti Polar Lipids) at 50 mg/ml in decane, were formed across a 150 μm hole drilled in a polystyrene cup separating two chambers of 0.7 ml each. The cis chamber contained 400 mM cesium methane sulfonate (CsMS), 50 μM CaCl2, 25 mM HEPES, pH 7.4, while the trans side contained 40 mM CsMS, 25 mM HEPES pH 7.4. SR vesicles, suspended in 0.4-0.6 M sucrose, 400 mM CsMS were added to the cis chamber at a final concentration of 5-20 μg/ml. […] Channel activity was then measured at a holding potential of +25 mV with respect to the trans (ground) side. […] The data were interfaced through a Digidata 1322A 16 bit data Acquisition System (Axon Instruments), stored filtered at 1 kHz and analyzed for single channel activity using pCLAMP software package (version 9.0, Axon Instruments, Burlingame, Calif.).

[3] = electron donor activity (XTT reduction); assay type: physicochemical; details: Michaelis-Menten fit, read-out: Kd (concentration at which half maximal electron donor activity is observed)
Procedure: (§1) A sample buffer containing a compound to be tested and a photo-reactive dye (i.e., 10 μM methylene blue, eosin B or erythrosin B) can be continuously illuminated with white light (e.g., about 10 cm away from a halogen 20 W light source) and its spectral characteristics monitored as a function of time (e.g., using a HP8452A diode array spectrophotometer). This can be performed in the presence of oxygen. In general, oxygen dissolved in the solution may decrease the photochemical activity of the dye. To compensate and to increase the sensitivity of the method, a comparatively high light intensity can be used (e.g., in the range of about 1-3 mW/cm^2).
(§2) To determine if a compound is an electron acceptor, an electron donor (e.g., NADH or EDTA) can be added to the sample buffer to supply electrons to the photo-excited dye. The electron donor reduces the concentration of the dye cation radical and maintains an increased concentration of the dye anion radical. To test whether a compound is an electron donor, no separate electron donor is necessary. In both cases, a probe can be added (e.g., NBD-Cl or XTT) to react with superoxide and produce a detectable product. The product can be measured, for example, as an increase in absorbance at 470 nm. The difference between the probe absorbance at 470 nm in the presence of the compound to be tested and a control without the compound can be taken as a measure of redox activity of the compound.
When oxygen is unable to intercept all electrons from the dye anion radical, the dye anion radical may disproportionate and form a colorless compound. This process also may serve as a detectable variable corresponding to the redox activity of the tested compound. A compound with electron-acceptor properties intercepts electrons from dye anion radical and thus slows down the rate of dye photo-bleaching. A compound with electron-donor properties donates electrons to the dye cation radical, thus stabilizing the dye anion radical and increasing the rate of dye photo-bleaching. See also International Publication No. WO 2006/086670. […]

[4] = test system: Langendorff perfused rabbit hearts; experiment: Dofetilide-induced arrhythmia (LQT2, EADs/TdP) in Langendorff perfused rabbit hearts; assay type: in vivo
Procedure: (§3) FIG. 12A plots the transmembrane potential (Vm) and intracellular calcium level (Cai) over a 3-second period five minutes after administration of dofetilide (0.5 μM). FIG. 12B plots the transmembrane potential (Vm) and intracellular calcium level (Cai) over a 3-second period ten minutes after administration of dofetilide (0.5 μM).
(§4) EADs are triggered by spontaneous SR Ca^2+ release and increase in severity or frequency leading to TdP after a few minutes.

ventricular myocytes = details: independent of the presence of FKBP12.6; Hunt et al. 2007; cited from earlier work
[5] = test system: TNF-α female perfused mouse hearts; experiment: Ca2+ transients in Langendorff perfused mouse heart (Rhod-2 fluorescence); assay type: in vivo; details: for effect on Ca2+ transients, in words: nanomolar concentrations
From the text: Ca^2+i transients were monitored in a Langendorff perfused mouse heart using Rhod-2 fluorescence.
It is believed that the faster and larger Ca^2+ transient is due to an increase in Ca^2+ load in the lumen of the SR caused by a reduced Ca^2+ “leak” from the SR.

[6] = test system: Langendorff perfused rabbit hearts; experiment: arrhythmia induced by dofetilide in Langendorff perfused rabbit hearts; assay type: in vivo; details: with dofetilide 0.5 μM
Procedure: as §3, §4

RyR1 = RyR1 (Oryctolagus cuniculus, UniProt P11716); experiment: Thiol content of isolated RyR1 by CPM fluorescence; assay type: biochemical; details: 10 mM tetracaine; control ~47 thiols per monomeric receptor
[7] = target: reactive thiols on the RyR/CRC (Oryctolagus cuniculus, UniProt P11716); experiment: Redox potential of reactive thiols on RyR from rate of ryanodine binding vs solution redox potential; assay type: biochemical; details: tetracaine 25 μM; control (20 μM Ca2+) −160.3±3.2 mV
[8] = Electron donor activity: initial rate of XTT reduction; assay type: physicochemical; details: initial rate of XTT reduction fit to Michaelis-Menton equation; read-out: Kd, concentration at which half maximal electron donor activity is observed
Procedure: as §1
as §2, with “In both cases, a probe can be added (e.g., NBD-Cl or XTT) to react with superoxide and produce a detectable product.” left out, “compound. […]” for “compound.”

[9] = skeletal muscle CRC, four parameter logistic curve fit, FIG. 2, read-out: IC50, concentration required to half maximally inhibit single channel activity

T1 sequence (P11716 whole entry): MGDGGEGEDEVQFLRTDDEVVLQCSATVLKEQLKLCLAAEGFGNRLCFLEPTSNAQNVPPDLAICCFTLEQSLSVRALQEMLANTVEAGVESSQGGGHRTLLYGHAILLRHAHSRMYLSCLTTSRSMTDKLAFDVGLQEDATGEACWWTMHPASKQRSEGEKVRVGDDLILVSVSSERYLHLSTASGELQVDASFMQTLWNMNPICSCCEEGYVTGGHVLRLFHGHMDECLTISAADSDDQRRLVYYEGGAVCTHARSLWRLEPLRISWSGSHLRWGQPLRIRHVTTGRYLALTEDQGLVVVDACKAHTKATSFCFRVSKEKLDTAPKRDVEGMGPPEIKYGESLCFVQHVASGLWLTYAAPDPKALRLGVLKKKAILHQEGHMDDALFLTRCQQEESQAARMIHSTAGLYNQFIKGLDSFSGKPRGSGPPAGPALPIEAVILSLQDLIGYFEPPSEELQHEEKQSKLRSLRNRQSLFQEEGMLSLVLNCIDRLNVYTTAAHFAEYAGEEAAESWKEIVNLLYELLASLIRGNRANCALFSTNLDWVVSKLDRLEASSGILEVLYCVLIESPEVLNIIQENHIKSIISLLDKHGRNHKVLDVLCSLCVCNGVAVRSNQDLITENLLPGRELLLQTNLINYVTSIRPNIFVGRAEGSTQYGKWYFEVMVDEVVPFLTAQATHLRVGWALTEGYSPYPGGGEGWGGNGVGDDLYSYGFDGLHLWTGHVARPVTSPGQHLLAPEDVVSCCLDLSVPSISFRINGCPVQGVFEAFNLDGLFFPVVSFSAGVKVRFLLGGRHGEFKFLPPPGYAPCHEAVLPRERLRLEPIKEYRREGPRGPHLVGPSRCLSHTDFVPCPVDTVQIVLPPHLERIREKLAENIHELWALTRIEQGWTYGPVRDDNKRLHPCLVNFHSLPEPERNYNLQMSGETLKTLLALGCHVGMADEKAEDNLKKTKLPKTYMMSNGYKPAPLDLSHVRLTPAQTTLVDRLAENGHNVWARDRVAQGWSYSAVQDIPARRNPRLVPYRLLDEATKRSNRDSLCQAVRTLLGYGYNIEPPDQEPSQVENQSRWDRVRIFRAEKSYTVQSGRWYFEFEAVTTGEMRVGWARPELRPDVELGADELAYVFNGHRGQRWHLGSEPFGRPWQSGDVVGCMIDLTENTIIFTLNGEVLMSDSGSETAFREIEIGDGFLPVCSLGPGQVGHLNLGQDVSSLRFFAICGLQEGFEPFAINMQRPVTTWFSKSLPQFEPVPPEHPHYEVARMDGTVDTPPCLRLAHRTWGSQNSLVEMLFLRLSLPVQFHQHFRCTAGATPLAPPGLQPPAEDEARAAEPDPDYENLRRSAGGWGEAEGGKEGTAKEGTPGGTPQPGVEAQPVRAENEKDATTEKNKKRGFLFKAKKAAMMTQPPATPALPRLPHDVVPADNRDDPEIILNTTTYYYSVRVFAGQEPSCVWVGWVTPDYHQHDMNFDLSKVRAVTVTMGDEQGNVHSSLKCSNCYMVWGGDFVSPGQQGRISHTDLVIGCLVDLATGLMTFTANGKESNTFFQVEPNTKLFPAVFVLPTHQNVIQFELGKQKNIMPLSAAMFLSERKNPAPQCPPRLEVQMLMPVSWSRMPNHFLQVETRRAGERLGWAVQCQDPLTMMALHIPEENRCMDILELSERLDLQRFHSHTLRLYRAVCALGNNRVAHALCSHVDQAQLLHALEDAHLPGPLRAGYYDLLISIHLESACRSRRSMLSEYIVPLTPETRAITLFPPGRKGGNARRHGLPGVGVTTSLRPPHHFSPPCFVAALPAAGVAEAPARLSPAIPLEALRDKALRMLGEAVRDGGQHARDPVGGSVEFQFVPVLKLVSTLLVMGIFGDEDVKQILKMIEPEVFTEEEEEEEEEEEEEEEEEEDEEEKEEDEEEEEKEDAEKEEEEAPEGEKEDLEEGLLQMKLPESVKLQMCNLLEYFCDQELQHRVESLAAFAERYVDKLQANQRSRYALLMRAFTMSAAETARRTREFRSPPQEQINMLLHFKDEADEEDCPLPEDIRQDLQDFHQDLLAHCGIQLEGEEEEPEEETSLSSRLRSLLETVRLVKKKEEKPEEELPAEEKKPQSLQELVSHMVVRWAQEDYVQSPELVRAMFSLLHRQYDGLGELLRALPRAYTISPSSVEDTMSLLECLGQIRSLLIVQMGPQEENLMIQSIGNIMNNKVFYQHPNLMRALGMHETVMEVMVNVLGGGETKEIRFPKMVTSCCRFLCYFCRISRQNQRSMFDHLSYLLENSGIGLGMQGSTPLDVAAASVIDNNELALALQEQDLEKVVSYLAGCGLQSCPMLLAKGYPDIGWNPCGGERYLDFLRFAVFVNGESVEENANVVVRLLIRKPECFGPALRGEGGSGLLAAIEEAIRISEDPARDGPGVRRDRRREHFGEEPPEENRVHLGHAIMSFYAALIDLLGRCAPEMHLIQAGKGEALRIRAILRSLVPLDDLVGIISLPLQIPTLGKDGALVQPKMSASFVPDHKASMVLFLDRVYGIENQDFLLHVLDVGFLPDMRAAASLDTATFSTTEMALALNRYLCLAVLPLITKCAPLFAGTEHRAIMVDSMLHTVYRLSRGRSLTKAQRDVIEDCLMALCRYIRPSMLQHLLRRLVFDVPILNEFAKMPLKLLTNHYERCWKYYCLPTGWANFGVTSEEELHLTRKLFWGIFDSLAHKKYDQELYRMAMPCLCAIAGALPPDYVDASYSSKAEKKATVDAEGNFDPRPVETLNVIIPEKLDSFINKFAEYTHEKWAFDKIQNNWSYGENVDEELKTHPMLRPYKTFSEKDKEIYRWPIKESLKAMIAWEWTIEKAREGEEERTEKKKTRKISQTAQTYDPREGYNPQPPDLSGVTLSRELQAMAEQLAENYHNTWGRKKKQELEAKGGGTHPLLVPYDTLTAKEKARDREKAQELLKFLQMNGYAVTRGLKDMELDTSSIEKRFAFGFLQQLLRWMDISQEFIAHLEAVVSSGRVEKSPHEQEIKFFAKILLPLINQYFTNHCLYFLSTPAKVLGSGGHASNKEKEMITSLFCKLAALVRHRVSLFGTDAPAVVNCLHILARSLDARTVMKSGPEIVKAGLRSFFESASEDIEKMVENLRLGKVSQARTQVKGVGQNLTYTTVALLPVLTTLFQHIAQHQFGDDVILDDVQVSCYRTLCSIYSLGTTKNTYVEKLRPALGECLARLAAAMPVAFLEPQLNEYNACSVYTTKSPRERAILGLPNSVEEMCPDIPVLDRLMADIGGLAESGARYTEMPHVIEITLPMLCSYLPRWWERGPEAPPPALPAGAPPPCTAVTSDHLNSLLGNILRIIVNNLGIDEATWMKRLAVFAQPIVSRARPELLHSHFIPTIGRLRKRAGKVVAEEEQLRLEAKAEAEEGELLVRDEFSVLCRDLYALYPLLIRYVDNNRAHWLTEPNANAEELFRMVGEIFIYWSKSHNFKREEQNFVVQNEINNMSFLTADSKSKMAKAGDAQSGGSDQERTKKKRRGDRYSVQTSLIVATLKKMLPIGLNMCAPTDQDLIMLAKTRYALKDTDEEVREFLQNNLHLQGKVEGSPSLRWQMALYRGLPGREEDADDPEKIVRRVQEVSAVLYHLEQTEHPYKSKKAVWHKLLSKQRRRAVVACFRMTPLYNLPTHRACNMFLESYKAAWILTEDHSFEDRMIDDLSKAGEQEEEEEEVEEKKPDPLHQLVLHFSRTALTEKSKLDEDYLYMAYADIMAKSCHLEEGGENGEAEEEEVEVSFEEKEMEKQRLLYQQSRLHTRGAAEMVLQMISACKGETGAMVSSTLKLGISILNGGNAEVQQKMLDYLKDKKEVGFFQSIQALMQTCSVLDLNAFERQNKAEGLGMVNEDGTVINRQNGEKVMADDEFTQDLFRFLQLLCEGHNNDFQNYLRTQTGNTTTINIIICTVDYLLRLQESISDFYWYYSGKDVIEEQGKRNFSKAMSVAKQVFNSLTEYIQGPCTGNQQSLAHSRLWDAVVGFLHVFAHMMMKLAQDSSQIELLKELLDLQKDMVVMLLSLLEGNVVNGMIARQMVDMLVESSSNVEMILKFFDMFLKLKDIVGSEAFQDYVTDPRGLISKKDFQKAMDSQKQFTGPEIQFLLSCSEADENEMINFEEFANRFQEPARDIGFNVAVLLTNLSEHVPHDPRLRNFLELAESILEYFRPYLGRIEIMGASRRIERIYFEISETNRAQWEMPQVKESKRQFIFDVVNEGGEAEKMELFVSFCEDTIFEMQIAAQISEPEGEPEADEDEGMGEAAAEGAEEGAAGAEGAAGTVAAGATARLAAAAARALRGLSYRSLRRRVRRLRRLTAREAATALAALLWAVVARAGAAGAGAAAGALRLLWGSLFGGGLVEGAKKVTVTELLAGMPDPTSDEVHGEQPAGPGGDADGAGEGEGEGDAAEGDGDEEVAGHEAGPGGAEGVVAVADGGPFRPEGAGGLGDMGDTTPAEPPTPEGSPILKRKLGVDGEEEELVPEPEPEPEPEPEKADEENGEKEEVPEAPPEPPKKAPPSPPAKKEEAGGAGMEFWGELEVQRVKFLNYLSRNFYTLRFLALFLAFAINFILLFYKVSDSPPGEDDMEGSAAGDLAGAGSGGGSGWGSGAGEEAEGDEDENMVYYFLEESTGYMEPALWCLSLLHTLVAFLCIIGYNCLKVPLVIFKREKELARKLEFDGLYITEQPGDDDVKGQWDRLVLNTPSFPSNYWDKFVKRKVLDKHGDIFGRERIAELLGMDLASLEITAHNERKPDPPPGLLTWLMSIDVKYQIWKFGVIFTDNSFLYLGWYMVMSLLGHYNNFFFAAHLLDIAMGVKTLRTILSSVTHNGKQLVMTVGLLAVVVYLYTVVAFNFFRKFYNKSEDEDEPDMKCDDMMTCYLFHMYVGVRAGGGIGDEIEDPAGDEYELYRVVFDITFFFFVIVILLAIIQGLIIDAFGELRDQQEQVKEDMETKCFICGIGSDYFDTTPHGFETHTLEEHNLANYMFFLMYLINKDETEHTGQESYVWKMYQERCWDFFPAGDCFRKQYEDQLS
T1 sequence (P62943 2-108 partner limits assumed): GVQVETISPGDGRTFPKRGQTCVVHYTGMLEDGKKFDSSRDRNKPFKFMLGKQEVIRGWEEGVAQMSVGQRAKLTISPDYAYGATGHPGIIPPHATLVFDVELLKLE
Chain of RyR1 (P11716 whole entry): as the sequence (P11716 whole entry) above

COc1ccc(O)cc1C [4-MmC, 4-methoxy-3-methylphenol]
open probability Po ([1]; +10 μM 4-MmC after 6 mM caffeine (Po=0.071), 50 μM Ca2+, FIG. 3C): 0.015
Ki ([1]; skeletal muscle CRC, FIG. 5, unit inferred, read-out: Ki for inhibition of single channel activity): ~0.5 µM
effect on open probability (Po), in words ([1]; sub-micromolar concentrations, FIG. 5): significantly decreased
decrease of open probability (Po) at sub-micromolar concentrations [2]: significantly decreased the open probability (Po)
Kd ([3]; listed as 4-methoxy-3-methyl phenol): 13 µM
Kd [3]: ~13 µM

CN(CCOc1ccc(NS(C)(=O)=O)cc1)CCc1ccc(NS(C)(=O)=O)cc1 [Dofetilide, dofetilide, reference compound]
time to elicit EADs ([4]; dofetilide 0.5 μM): 5 min
pro-arrhythmic effect, in words ([4]; dofetilide 0.5 μM, panel B, ten minutes): promotes TdP

COc1ccc2c(c1)CN(C(=O)CCN1CCC(Cc3ccccc3)CC1)CCS2 [K201, reference compound]
spontaneous Ca2+ release (ventricular myocytes): suppresses spontaneous Ca^2+ release in ventricular myocytes
Kd [3]: 28 µM

COc1ccc2c(c1)CN(C(=O)CCN1CCC(Cc3ccccc3)CC1)CCS2 [K201]
concentration at which amplitude of Ca2+ transients was adversely affected ([5]; mouse, in vivo): 10 to 25 µM
effect on Ca2+ transients, in words [5]: enhance Ca^2+ transients
effect on channel activity in the absence of FKBP12, in words ([1]; 10 μM K201 after 20 μM FK506): still inhibited channel activity
open probability Po ([1]; +5 μM K201, 20 μM Ca2+, control Po=0.107, FIG. 8B): 0.060
open probability Po ([1]; +10 μM K201, 20 μM Ca2+, control Po=0.107, FIG. 8C): 0.047
open probability Po ([1]; +10 μM K201 on FK506-treated (20 μM) channel, Po=0.106 before, FIG. 9C): 0.009
IC50 ([1]; IC50 for K201 inhibition of RyR1, FIG. 2, as restated in Example 4, unit inferred): ~4 µM
IC50 [1, 9]: 3.98 ± 0.79 µM

COc1ccc2c(c1)CN(C(=O)CCN1CCC(Cc3ccc4c(c3)OCO4)CC1)CCS2 [[1,3]dioxole derivative of K201, 3-(4-(benzo[d][1,3]dioxol-5-ylmethyl)piperidin-1-yl)-1-(7-methoxy-2,3-dihydrobenzo[f][1,4]thiazepin-4(5H)-yl)propan-1-one]
effect on amount of SR Ca2+ release compared to controls, in words ([5]; high concentrations): did not reduce the amount of SR Ca^2+ release
concentration causing enhancement of fractional change in Rhod-2 fluorescence (Ca2+ transient) ([5]; lowest concentration stated (as low as)): 10 nM
effect on Ca2+ transients, in words [5]: enhance Ca^2+ transients
effect on arrhythmias induced by dofetilide, in words ([4]; 1 μM test compound, dofetilide 0.5 μM): reverse arrhythmias
effect on EADs and AP shape, in words ([4]; 1.0 μM, dofetilide 0.5 μM, adult female rabbit hearts paced at 1.2 second intervals): all EADs were suppressed
duration of protective effects ([4]; continuous perfusion with dofetilide and test compound): 20 min
IC50 [1, 9]: 0.24 ± 0.05 µM
potency of inhibition of single channel activity relative to K201 ([1]; skeletal muscle CRC, ratio of IC50 values): about 16 times

COc1ccc2c(c1)CN(C(=O)CCN1CCC(Cc3ccc4c(c3)OCO4)CC1)CCS2 [[1,3]dioxole derivative, 3-(4-(benzo[d][1,3]dioxol-5-ylmethyl)piperidin-1-yl)-1-(7-methoxy-2,3-dihydrobenzo[f][1,4]thiazepin-4(5H)-yl)propan-1-one]
action potential shape ([6]; 1.0 μM): the normal AP shape was restored
elimination of EADs and delayed afterdepolarizations (DADs) ([6]; 1.0 μM): eliminated both EADs and delayed afterdepolarizations (DADs)
reversal of arrhythmias induced by dofetilide ([6]; 1 μM, FIG. 12): can reverse arrhythmias induced by dofetilide

CCCCNc1ccc(C(=O)OCCN(C)C)cc1 [tetracaine]
number of thiols reacting with CPM (RyR1): ~70 per monomer
redox potential of the reactive thiols [7]: −147.7±2.8 mV

FKBP12: FK506 binding protein (calstabin1) that binds RyR1; endogenous electron donor
Kd [8]: ~12.4 µM
